Data as given in US6776996B2, “Pesticidal matrices” (priority 1997, dated 2004).

System: H. virescens
Assay: Field evaluation against tobacco budworms on tobacco in North Carolina
Assay type: in vivo
Details: 0.75 lb of ai/acre
Procedure: A field evaluation is conducted on tobacco grown near Clayton, N.C. A wettable powder composition of this invention (composition 46) at 2×10^11, 5×10^11, and 8×10^11 bodies/acre, Bacillus thuringiensis (DIPEL® 2X, Abbott Laboratories) at 1.0 lb wettable powder (WP)/acre, and acephate (ORTHENE® 75SP, available from Valent USA, Walnut Creek, Calif.) at 0.75 lb active ingredient (ai)/acre are compared for efficacy against H. virescens. Biological materials are suspended in water containing an insect gustatory stimulant (PHEAST® available from […], Fresno, Calif.); aqueous dilutions of acephate contained no PHEAST®. Treatments and untreated check are replicated four times (small plots) in a randomized complete block design. By using fine-hair brushes, 1- to 2-day old laboratory-reared H. virescens are placed on the underside of leaves in each plot. Natural infestation of H. virescens also occurred at the test site. Treatments are applied to tobacco about 2 hours before each artificial larval infestation on days 1 and 8. Treatments are applied with a tractor-mounted, CO2-pressurized boom sprayer which is calibrated to deliver 25 gallons/acre through a single D2-33 nozzle centered over each tobacco row. Boom pressure during application is 60 lb/in^2.
At 2 and 5 days after first application and 5 and 9 days after second application, live H. virescens are counted on 20 plants in each plot. Additionally, visual estimate of leaf damage caused by larval feeding is made 14 days after the second application using the rating scale shown below.

SMILES: COP(=O)(NC(C)=O)SC (centres unmarked) [Acephate, acephate]
- Mean Number of Live Larvae per 20 Plants (Day of Test 3): 6.0
- Mean Number of Live Larvae per 20 Plants (Day of Test 8): 5.8
- Mean Number of Live Larvae per 20 Plants (Day of Test 13): 1.2
- Mean Number of Live Larvae per 20 Plants (Day of Test 17): 0.8
- Mean Plant Injury on Day 22 of Test (rating scale 0 (No Damage) to 4 (Severe Damage)): 0.2
